Laboratory results taken from patent publication US8143226B2, “Tyrosine kinase receptor antagonists and methods of treatment for breast cancer” (The Regents of the University of California, priority 2005, dated 2012).

Tests used:
pancreatic cancer cells = assay: Growth of pancreatic cancer cells in vitro; type: cell-based; conditions: FIG. 3
IGF-1R = IGF-1R (Homo sapiens, UniProt P08069); assay: IGF-1R phosphorylation ELISA in MCF-7/HER2-18 cells; type: cell-based; parameters: endogenous in cells; host or cells: MCF-7/HER2-18; conditions: 3 nM IGF-I 10 min
Method: (§1) RTK inhibitors were dissolved in DMSO and diluted with culture medium before being added to cells for 1.5 hour at 37° C. The final concentration of DMSO during the incubation was 0.3% . For some studies, cells were also stimulated with 3 nM IGF-I for 10 minutes at 37° C. Reactions were terminated by rapidly aspirating medium and washing cells three times with ice cold PBS. Cells were harvested and solubilized in 50 mM HEPES, 150 mM NaCl, 1% Triton X-100, 1 mM PMSF, and 2 mM vanadate for 1 hour at 4° C. Protein concentrations were determined by BCA assay (Pierce, Rockford, Ill.). […] Briefly, 10 μg lysate protein were added to triplicate wells in a 96-well plate coated with monoclonal antibody to the IGF-IR (IR3; 2 μg/ml), and incubated for 18 hours at 4° C. Plates were washed five times and then HRP-conjugated anti-phosphotyrosine antibody (0.3 μg/ml), diluted in Solution B (50 mM HEPES, pH 7.6, 150 mM NaCl, 0.05% Tween-20, 1 mM PMSF, 2 mM vanadate and 1 mg/ml bacitracin), was added for two hours at 22° C. Plates were washed five times prior to color development with TMB substrate, which was terminated with 1.0 M H3PO4. Values for receptor phosphorylation were determined by measuring absorbance at 450 nm.

HER2/neu = target: T1, HER2/neu (Rattus norvegicus, UniProt P06494); assay: HER2/neu phosphorylation in excised MCNeuA tumors (western blot); type: in vivo, mouse; conditions: 37.5 mg/kg i.p. three times a week, 16 hours after final dose, vs vehicle
T1 construct: expressed in transfected cells; host or cells: MCNeuA mouse mammary carcinoma cells (MMTV/neu transgene), in culture or grown as tumours in neuTg mice
Method: Tumors were homogenized in 50 mM HEPES, pH 7.6, 150 mM NaCl, 1 mM PMSF, 2 μM leupeptin, 2 μM Pepstatin A, and 2 mM Na3VO4, and solubilized by the addition of 1% Triton x-100. Soluble lysates were prepared as described for cell culture studies. Tyrosine phosphorylation of IGF-1R was determined by ELISA as described for MCF-7 cells. Phosphorylation of HER2/neu was determined by western blot employing the phospho-specific antibody as in the cell culture studies. The degree of phosphorylation for each receptor was normalized to total receptor protein content in the tumor samples as determined by western blotting with antibodies against the human IGF-1R and the rodent HER2/neu.

[1] = test system: Kelly human neuroblastoma cells
Method: Briefly, 7×10^6 Kelly human neuroblastoma cells were resuspended in a 1:1 mixture of PBS and Matrigel (BD Clontech Inc.) and 100 μl of the mixture was injected subcutaneously into the flanks of 6-12 week-old BALB/c nude mice. […] Tumors were then harvested, weighed and measured. The formula width^2×length/2 was used to calculate tumor-volumes.

MCF-7/neo cells = assay: Growth of MCF-7/neo cells with RTK inhibitors, 6 days (CyQuant); type: cell-based; conditions: Homo sapiens, MCF7, 144 h, read-out: one half maximal effect on growth
Method: MCF-7/neo or MCF-7/HER2-18 cells were plated in 96 well plates (4×10^3 cells/well) in 100 μl/well of DMEM-10 medium. […] Media with inhibitors was refreshed on day 3 and the cultures were harvested on day 6. The plates were inverted onto paper towels with gentle blotting to remove growth medium without disrupting adherent cells. Each plate was kept at −80° C. until assayed for cell growth. After thawing the plate at room temperature, 200 μl of CyQuant GR solution was added to each well and the plates were incubated in the dark for five minutes. Fluorescence was measured with a SpectraMax Gemini XS fluorescence microplate reader (Molecular Devices) with 480-nm excitation and 520-nm emission.

HER2 = target: T2, HER2 (Homo sapiens, UniProt P04626); assay: HER2 phosphorylation ELISA in MCF-7/HER2-18 cells; type: cell-based; conditions: not stimulated
T2 construct: MCF-7 cells stably transfected with the full length HER2 cDNA (MCF-7/HER2-18); expressed in transfected cells; host or cells: MCF-7/HER2-18 (from Dr. Christopher Benz)
Method: as §1
HER2 phosphorylation was also determined by ELISA as above, using 2 μg of lysate protein per well and 2 μg/ml Herceptin as the capturing antibody.

caspase-3 = assay: Caspase-3 cleavage in SH-SY5Y cells; type: cell-based, human; conditions: SH-SY5Y cells in serum, 6 h
Excerpt: Detection of Caspase-3 cleavage. […] Lysates were collected as described above, and the 14/17 kD cleavage fragments of caspase-3 were detected via SDS-PAGE followed by immunoblotting with anti-cleaved caspase-3 antibody.

[2] = test system: SH-SY5Y, SHEP and Kelly neuroblastoma cells; assay: CyQUANT assay for neuroblastoma cell growth; type: cell-based, human
Method: CyQUANT assay for cell growth. Cells were plated on four 96-well tissue culture plates, in DMEM/10% calf serum at a density of 8000 cells/well and incubated for 24 h. In one set of experiments, the medium was switched to serum free DMEM supplemented with 1% bovine serum albumin (to provide osmotic support). IGF-I (10 nM) was added to some samples on a daily basis for up to 3 days. […] The media from one plate was immediately removed, and the plate was frozen at −80° C. This plate served as the baseline for the experiment. Single plates were frozen at 24, 48, and 72 h following addition of drugs. DNA content of each well was quantified by staining with CyQUANT according to the manufacturer's instructions and measuring CyQUANT […] with a fluorimeter. Each condition was run in triplicate, and the experiment was repeated three times.

T2 sequence (P04626 23-1255): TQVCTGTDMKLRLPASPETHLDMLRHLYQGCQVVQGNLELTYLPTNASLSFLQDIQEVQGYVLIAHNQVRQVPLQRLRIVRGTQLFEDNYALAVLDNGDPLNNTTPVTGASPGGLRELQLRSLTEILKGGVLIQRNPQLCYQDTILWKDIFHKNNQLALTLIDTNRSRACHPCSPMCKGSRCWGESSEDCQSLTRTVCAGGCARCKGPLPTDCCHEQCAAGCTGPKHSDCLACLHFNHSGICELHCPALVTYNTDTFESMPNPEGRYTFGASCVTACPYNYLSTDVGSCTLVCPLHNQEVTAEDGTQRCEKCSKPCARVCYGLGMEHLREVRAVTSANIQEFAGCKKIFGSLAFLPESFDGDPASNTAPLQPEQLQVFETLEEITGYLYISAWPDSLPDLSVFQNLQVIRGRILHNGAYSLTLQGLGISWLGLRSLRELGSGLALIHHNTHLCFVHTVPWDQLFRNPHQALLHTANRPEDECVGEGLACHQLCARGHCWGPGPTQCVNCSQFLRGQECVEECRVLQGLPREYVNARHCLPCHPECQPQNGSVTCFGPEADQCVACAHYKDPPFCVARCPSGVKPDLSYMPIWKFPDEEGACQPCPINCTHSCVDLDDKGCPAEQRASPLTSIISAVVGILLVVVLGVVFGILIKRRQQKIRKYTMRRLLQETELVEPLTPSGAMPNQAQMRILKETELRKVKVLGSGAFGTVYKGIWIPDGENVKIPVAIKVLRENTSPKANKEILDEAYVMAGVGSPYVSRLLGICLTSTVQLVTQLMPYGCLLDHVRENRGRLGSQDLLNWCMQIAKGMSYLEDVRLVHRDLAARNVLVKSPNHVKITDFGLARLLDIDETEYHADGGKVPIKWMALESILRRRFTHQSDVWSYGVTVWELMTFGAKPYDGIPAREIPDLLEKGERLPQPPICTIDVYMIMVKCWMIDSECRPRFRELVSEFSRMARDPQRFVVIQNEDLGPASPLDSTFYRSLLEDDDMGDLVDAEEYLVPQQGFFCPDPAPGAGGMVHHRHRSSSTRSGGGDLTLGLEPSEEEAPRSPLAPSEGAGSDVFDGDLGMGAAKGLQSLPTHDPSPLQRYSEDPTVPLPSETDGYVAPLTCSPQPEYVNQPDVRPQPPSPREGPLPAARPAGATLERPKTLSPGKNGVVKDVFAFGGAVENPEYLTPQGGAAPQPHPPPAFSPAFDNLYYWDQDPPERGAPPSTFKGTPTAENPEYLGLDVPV
Sequence of IGF-1R (P08069 31-1367): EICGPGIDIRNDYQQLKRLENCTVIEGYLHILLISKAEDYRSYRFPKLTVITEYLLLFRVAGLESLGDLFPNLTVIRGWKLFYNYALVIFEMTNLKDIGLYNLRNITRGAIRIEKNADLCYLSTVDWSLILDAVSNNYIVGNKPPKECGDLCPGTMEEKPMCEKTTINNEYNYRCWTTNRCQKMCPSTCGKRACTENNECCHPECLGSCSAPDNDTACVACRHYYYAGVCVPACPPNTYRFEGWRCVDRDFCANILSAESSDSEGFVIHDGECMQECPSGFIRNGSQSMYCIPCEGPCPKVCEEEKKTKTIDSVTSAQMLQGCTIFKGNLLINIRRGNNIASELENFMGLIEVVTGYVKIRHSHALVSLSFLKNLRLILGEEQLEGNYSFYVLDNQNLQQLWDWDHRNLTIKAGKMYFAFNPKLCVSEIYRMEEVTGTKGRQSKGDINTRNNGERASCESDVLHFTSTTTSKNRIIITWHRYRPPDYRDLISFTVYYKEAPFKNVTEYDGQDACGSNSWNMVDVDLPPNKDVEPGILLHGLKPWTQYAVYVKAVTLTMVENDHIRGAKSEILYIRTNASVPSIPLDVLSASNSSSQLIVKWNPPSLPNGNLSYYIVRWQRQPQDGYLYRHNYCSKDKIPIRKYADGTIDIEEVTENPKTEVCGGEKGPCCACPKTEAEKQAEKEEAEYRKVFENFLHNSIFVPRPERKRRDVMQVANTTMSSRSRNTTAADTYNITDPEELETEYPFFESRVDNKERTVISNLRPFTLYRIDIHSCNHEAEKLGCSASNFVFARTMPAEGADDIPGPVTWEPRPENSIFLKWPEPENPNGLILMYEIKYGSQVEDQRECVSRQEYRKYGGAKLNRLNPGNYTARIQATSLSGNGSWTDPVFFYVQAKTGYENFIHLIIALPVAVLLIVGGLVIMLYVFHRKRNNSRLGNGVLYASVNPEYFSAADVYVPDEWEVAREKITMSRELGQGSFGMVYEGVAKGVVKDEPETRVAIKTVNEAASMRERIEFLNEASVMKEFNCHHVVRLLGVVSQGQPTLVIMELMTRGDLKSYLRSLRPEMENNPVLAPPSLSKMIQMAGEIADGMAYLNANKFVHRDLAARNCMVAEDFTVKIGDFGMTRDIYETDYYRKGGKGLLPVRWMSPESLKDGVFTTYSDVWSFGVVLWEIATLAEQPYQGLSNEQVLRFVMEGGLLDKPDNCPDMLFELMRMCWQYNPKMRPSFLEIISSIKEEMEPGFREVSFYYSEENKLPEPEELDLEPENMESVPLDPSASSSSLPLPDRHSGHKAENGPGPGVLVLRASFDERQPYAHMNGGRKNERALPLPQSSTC
T1 sequence (P06494 23-1257): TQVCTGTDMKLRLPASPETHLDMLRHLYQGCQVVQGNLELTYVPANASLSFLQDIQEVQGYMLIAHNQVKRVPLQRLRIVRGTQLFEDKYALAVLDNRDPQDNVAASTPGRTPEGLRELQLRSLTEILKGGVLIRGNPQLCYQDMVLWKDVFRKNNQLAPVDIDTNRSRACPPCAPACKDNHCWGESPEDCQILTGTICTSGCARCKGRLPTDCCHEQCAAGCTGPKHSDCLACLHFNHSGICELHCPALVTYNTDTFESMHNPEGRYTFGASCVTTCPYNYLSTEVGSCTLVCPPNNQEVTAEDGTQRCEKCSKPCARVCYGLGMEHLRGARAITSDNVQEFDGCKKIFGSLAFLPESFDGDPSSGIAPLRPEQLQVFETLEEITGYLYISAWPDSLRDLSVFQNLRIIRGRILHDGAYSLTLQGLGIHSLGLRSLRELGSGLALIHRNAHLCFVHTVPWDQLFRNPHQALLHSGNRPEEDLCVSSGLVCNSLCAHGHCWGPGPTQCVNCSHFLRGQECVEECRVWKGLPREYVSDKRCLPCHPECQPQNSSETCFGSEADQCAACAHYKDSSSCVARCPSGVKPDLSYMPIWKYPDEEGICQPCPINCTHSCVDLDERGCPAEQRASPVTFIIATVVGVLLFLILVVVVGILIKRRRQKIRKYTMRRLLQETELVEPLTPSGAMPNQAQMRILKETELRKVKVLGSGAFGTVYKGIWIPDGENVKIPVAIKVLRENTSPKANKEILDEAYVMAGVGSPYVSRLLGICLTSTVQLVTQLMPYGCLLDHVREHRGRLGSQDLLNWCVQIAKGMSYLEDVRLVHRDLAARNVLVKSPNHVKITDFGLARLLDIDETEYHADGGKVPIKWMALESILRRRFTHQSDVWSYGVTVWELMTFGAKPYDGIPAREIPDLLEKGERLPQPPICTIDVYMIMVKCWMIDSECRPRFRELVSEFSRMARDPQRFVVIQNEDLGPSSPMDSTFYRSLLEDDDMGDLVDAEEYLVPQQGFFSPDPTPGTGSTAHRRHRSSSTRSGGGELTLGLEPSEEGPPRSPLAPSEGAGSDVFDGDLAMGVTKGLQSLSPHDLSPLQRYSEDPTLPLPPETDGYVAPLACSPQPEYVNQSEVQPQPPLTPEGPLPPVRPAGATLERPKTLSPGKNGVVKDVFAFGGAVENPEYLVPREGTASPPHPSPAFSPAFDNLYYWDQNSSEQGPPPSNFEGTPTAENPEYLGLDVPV

For `CC(Cc1ccc(O)c(O)c1)C(C)Cc1ccc(O)c(O)c1` (stereo not drawn) [NDGA, nordihydroguaiaretic acid], the “growth of pancreatic cancer cells in vitro” value (pancreatic cancer cells) was “inhibiting”, the “IGF-1 stimulated phosphorylation of the IGF-1R” value (IGF-1R) was “strongly inhibited” and the “HER2/neu receptor autophosphorylation in tumors” value (HER2/neu) was “reduced”. The “inhibition of tumor growth” value ([1]; 50 mg/kg daily for 10 d, nude mice, Kelly xenografts) was 50%, the tolerability in mice ([1]; mouse, in vivo) was “very well tolerated” and the IC50 (MCF-7/neo cells) was 12.5 µM. For the same compound, the HER2 phosphorylation (HER2) was “strongly inhibited”, the IC50 (HER2; read-out: half maximal effect on HER2 phosphorylation) was roughly 30 µM and the caspase-3 activation (caspase-3) was “dose-dependent caspase-3 activation”. The “proliferation in serum-free media with 10 nM IGF-I” value ([2]; SH-SY5Y and Kelly cells, up to 72 h) was “inhibited proliferation”, the “proliferation in medium containing 10% serum” value ([2]; SH-SY5Y and SHEP cells, up to 72 h) was “inhibited the proliferation” and the “dose that completely blocks neuroblastoma growth in vitro” value ([2]; serum and serum-free conditions, several days) was 15 to 30 µM.
